Source: patent publication US12533340B2, “Treatment of autoimmune disease in a patient receiving additionally a beta-blocker” (NOVARTIS AG, priority 2015, dated 2026)

What was measured:
healthy volunteers [1] = assay: Clinical trial: bradyarrhythmias (AVBs, sinus pauses) from 24 h post-dose Holter evaluation; assay type: in vivo, human
Source text: (§1) Healthy volunteers (men and women) aged between 18 and 55 years with a body mass index of 18-30 kg/m^2 were included in the study. Subjects were required to have an FEV1 of ≥90% of predicted normal, a systolic blood pressure (BP) of 90-140 mm Hg, a diastolic BP of 50-90 mm Hg and a pulse rate of 50-90 bpm. Women of childbearing potential, pregnant or lactating women, homozygous carriers for CYP2C9*3 genotype, smokers, those with current or medical history of cardiovascular disorders or bronchospastic disease were excluded from this study. At screening, a 24 h Holter recording was performed on all subjects to exclude those with any significant arrhythmia.
This was a double-blind, randomised, placebo-controlled study consisting of the following periods: screening (28 days), baseline evaluation (2 days), treatment (20 days) and study completion evaluation (approximately 10 days after the last drug administration; FIG. 1). Eligible subjects were domiciled for 22 days, starting approximately 36 h before dosing until 24 h post-dose after Day 20. […]
(§2) The HR and bradyarrhythmias were evaluated from the 12-Lead Holter electrocardiogram (ECG) recordings. […] The hourly average HR in each post-dose hour was calculated from the 60 intervals of per minute HR data. […]
The cardiac rhythm was evaluated from the 24 h post-dose Holter evaluation as mentioned earlier. […]

[2] = deduced on the basis of previous reports (Legangneux 2013, Murdoch 1991); cited from earlier work
healthy volunteers [3] = assay: Clinical trial: effect on heart rate (EmaxHR) from 12-lead Holter ECG recordings; assay type: in vivo, human; conditions: for mean EmaxHR (maximum change from baseline in time matched, hourly average HR): Day 10, monotherapy at steady state, siponimod 2 mg qd after titration or propranolol 80 mg LA qd, placebo 11.73 bpm
Source text: as §1
This was a double-blind, randomised, placebo-controlled study consisting of the following periods: screening (28 days), baseline evaluation (2 days), treatment (20 days) and study completion evaluation (approximately 10 days after the last drug administration; FIG. 1). Eligible subjects were domiciled for 22 days, starting approximately 36 h before dosing until 24 h post-dose after Day 20. The baseline evaluations were performed on Day −2 or Day −1. Subjects were randomised to one of the four treatment groups (A, B, C and D) in a ratio of 1:1:1:1. […] In Group A, treatment was initiated with the siponimod dose-titration regimen (Days 1-6) followed by siponimod 2 mg (Days 7-20). Siponimod was uptitrated by one administration of 0.25 mg siponimod on day 1, one administration of 0.25 mg siponimod on day 2, one administration of 0.5 mg siponimod on day 3, one administration of 0.75 mg siponimod on day 4, one administration of 1.25 mg siponimod on day 5 and one administration of 2 mg siponimod on day 6, followed by a steady dose of 2 mg siponimod qd thereafter. […] These subjects concomitantly received siponimod-placebo (Days 1-10), followed by the siponimod dose-titration regimen (Days 11-16) and siponimod 2 mg (Days 17-20). […]
as §2

Row | SMILES | episodes of second-degree AVBs or SPs of >3 seconds duration (healthy volunteers [1]; 24 h Holter on the evaluation days) | time to reach a pharmacokinetic steady state [2] | mean EmaxHR (maximum change from baseline in time matched, hourly average HR) (healthy volunteers [3]) [bpm] | mean difference in EmaxHR, siponimod alone versus propranolol alone (healthy volunteers [3]; Day 10, 95% CI -4.98, 2.87, P=0.595) [bpm] | episodes of Mobitz I AVB (healthy volunteers [1]; propranolol only treatment)
1 | CCc1cc(/C(C)=N/OCc2ccc(C3CCCCC3)c(C(F)(F)F)c2)ccc1CN1CC(C(=O)O)C1 [siponimod, 1-{4-[1-((E)-4-cyclohexyl-3-trifluoromethyl-benzyloxyimino)-ethyl]-2-ethyl-benzyl}-azetidine-3-carboxylic acid] | no episodes | approximately 10 days | 16.79 | −1.06 | –
2 | CC(C)NCC(O)COc1cccc2ccccc12 (stereo not drawn) [propranolol, reference compound] | – | – | 17.85 | – | Two
